Inconclusive results and toxic doses are left out. How the source made its calls: active means survival T/C of 150% or more; inactive means T/C below 125% in these data.
System: CD2F1 mice, L1210 leukemia ip, survival T/C
Experiment: NCI In Vivo Anticancer Drug Screen. Data for tumor model L1210 Leukemia (intraperitoneal) in CD2F1 (CDF1) mice
Conditions: higher = longer survival
In short: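 Tumor-bearing mice (transplanted tumor) were split into treated and vehicle control groups, and the measured endpoint of each treated group was divided by that of its vehicle controls.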

[1] = endpoint: mean survival time, dose: 100.0 mg/kg/injection, schedule: Q01DX009 (ip), vehicle: saline with Tween-80
[2] = endpoint: mean survival time, dose: 200.0 mg/kg/injection, schedule: Q01DX009 (ip), vehicle: saline with Tween-80
[3] = endpoint: mean survival time, dose: 400.0 mg/kg/injection, schedule: Q01DX009 (ip), vehicle: saline with Tween-80
[4] = endpoint: mean survival time, dose: 100.0 mg/kg/injection, schedule: Q04DX003 (ip), vehicle: saline with Tween-80
[5] = endpoint: mean survival time, dose: 200.0 mg/kg/injection, schedule: Q04DX003 (ip), vehicle: saline with Tween-80
[6] = endpoint: mean survival time, dose: 400.0 mg/kg/injection, schedule: Q04DX003 (ip), vehicle: saline with Tween-80

Measured: T/C

Nc1ccc(S(=O)(=O)Nc2ccccc2C(=O)O)cc1
inactive: endpoint: mean survival time, dose: 37.5 mg/kg/injection, schedule: Q01DX001 (ip), vehicle: saline with Tween-80 102 % of control | endpoint: mean survival time, dose: 75.0 mg/kg/injection, schedule: Q01DX001 (ip), vehicle: saline with Tween-80 101 % of control | endpoint: mean survival time, dose: 150.0 mg/kg/injection, schedule: Q01DX001 (ip), vehicle: saline with Tween-80 95 % of control

CC(C)[C@]12O[C@H]1[C@@H]1O[C@]13[C@]1(O[C@H]1C[C@H]1C4=C(CC[C@@]13C)C(=O)OC4)[C@@H]2O
inactive: endpoint: mean survival time, dose: 0.8 micrograms/kg/injection, schedule: Q01DX009 (ip), vehicle: saline + alcohol 96 % of control | endpoint: mean survival time, dose: 1.6 micrograms/kg/injection, schedule: Q01DX009 (ip), vehicle: saline + alcohol 91 % of control | endpoint: mean survival time, dose: 6.3 micrograms/kg/injection, schedule: Q01DX009 (ip), vehicle: saline + alcohol 93 % of control | endpoint: mean survival time, dose: 12.5 micrograms/kg/injection, schedule: Q01DX009 (ip), vehicle: saline + alcohol 95 % of control | endpoint: mean survival time, dose: 25.0 micrograms/kg/injection, schedule: Q01DX009 (ip), vehicle: saline + alcohol 96 % of control | endpoint: mean survival time, dose: 50.0 micrograms/kg/injection, schedule: Q01DX009 (ip), vehicle: saline + alcohol 90 % of control | endpoint: mean survival time, dose: 100.0 micrograms/kg/injection, schedule: Q01DX009 (ip), vehicle: saline + alcohol 110 % of control | endpoint: median survival time, dose: 0.02 mg/kg/injection, schedule: Q03HX024 (ip), vehicle: saline + alcohol 111 % of control | endpoint: median survival time, dose: 0.03 mg/kg/injection, schedule: Q03HX024 (ip), vehicle: saline + alcohol 120 % of control | endpoint: median survival time, dose: 0.06 mg/kg/injection, schedule: Q01DX009 (ip), vehicle: saline + alcohol 104 % of control | endpoint: median survival time, dose: 0.06 mg/kg/injection, schedule: Q01DX009 (sc), vehicle: saline + alcohol 112 % of control | endpoint: median survival time, dose: 0.13 mg/kg/injection, schedule: Q01DX009 (ip), vehicle: saline + alcohol 120 % of control | endpoint: median survival time, dose: 0.13 mg/kg/injection, schedule: Q01DX009 (sc), vehicle: saline + alcohol 104 % of control | endpoint: median survival time, dose: 0.25 mg/kg/injection, schedule: Q04DX003 (ip), vehicle: saline + alcohol 112 % of control | endpoint: median survival time, dose: 0.25 mg/kg/injection, schedule: Q08DX002 (ip), vehicle: saline + alcohol 107 % of control | endpoint: median survival time, dose: 0.5 mg/kg/injection, schedule: Q01DX001 (sc), vehicle: saline + alcohol 105 % of control | endpoint: median survival time, dose: 0.5 mg/kg/injection, schedule: Q04DX003 (ip), vehicle: saline + alcohol 120 % of control | endpoint: median survival time, dose: 0.5 mg/kg/injection, schedule: Q08DX002 (ip), vehicle: saline + alcohol 115 % of control | endpoint: median survival time, dose: 1.0 mg/kg/injection, schedule: Q01DX001 (sc), vehicle: saline + alcohol 107 % of control | endpoint: median survival time, dose: 1.0 mg/kg/injection, schedule: Q04DX003 (ip), vehicle: saline + alcohol 110 % of control | endpoint: median survival time, dose: 1.0 mg/kg/injection, schedule: Q08DX002 (ip), vehicle: saline + alcohol 116 % of control

Oc1ccc(CC2=NCCc3cc(O)c(O)cc32)cc1O
inactive: endpoint: mean survival time, dose: 5.0 mg/kg/injection, schedule: Q01DX001 (ip), vehicle: saline 104 % of control | endpoint: mean survival time, dose: 10.0 mg/kg/injection, schedule: Q01DX001 (ip), vehicle: saline 98 % of control | endpoint: mean survival time, dose: 20.0 mg/kg/injection, schedule: Q01DX001 (ip), vehicle: saline 98 % of control | endpoint: mean survival time, dose: 40.0 mg/kg/injection, schedule: Q01DX001 (ip), vehicle: saline 100 % of control | endpoint: mean survival time, dose: 80.0 mg/kg/injection, schedule: Q01DX001 (ip), vehicle: saline 102 % of control

F[Si](c1ccccc1)(c1cccc2ccccc12)c1cccc2ccccc12
inactive: [1] 96 % of control | [2] 100 % of control | [3] 95 % of control

COc1cc2c(cc1OC)C(=O)C(C)(c1ccccc1)NC2 (configuration not stated)
inactive: [4] 96 % of control | [5] 96 % of control | [6] 94 % of control

CC(O)C1OC(n2cnc3c(ncn3C3OC(C(C)O)C(O)C3O)c2=O)C(O)C1O (configuration not stated)
inactive: endpoint: mean survival time, dose: 10.63 mg/kg/injection, schedule: Q01DX005 (ip), vehicle: water 102 % of control | endpoint: mean survival time, dose: 21.25 mg/kg/injection, schedule: Q01DX005 (ip), vehicle: water 98 % of control | endpoint: mean survival time, dose: 42.5 mg/kg/injection, schedule: Q01DX005 (ip), vehicle: water 102 % of control | endpoint: mean survival time, dose: 85.0 mg/kg/injection, schedule: Q01DX005 (ip), vehicle: water 101 % of control | endpoint: mean survival time, dose: 170.0 mg/kg/injection, schedule: Q01DX005 (ip), vehicle: water 108 % of control

C=CC(=O)Nc1ccccc1
inactive: endpoint: mean survival time, dose: 50.0 mg/kg/injection, schedule: Q04DX002 (ip), vehicle: Klucel (hydroxypropylcellulose) (HPC) 94 % of control | endpoint: mean survival time, dose: 100.0 mg/kg/injection, schedule: Q04DX002 (ip), vehicle: Klucel (hydroxypropylcellulose) (HPC) 94 % of control | [4] 96 % of control | endpoint: mean survival time, dose: 200.0 mg/kg/injection, schedule: Q04DX002 (ip), vehicle: Klucel (hydroxypropylcellulose) (HPC) 97 % of control | [5] 96 % of control | [6] 97 % of control

O/N=C1/CCCC/C1=C/c1ccccc1
inactive: [1] 103 % of control | [2] 97 % of control | [3] 97 % of control

CC1=[C-]C=CS1=O.[C-]#[O+].[C-]#[O+].[C-]#[O+].[Mo].[c-]1[c-][c-][cH-][c-]1 (configuration not stated)
inactive: endpoint: mean survival time, dose: 9.38 mg/kg/injection, schedule: Q04DX002 (ip), vehicle: saline with Tween-80 96 % of control | endpoint: mean survival time, dose: 18.7 mg/kg/injection, schedule: Q04DX002 (ip), vehicle: saline with Tween-80 96 % of control | endpoint: mean survival time, dose: 37.5 mg/kg/injection, schedule: Q04DX002 (ip), vehicle: saline with Tween-80 100 % of control

O=S(=O)(OC1CCCCC1Cl)c1ccc(Br)cc1 (configuration not stated)
inactive: [4] 102 % of control | [5] 94 % of control | [6] 94 % of control

CN(C)CC1CCCCCC(Br)C1O (configuration not stated)
inactive: endpoint: mean survival time, dose: 75.0 mg/kg/injection, schedule: Q01DX001 (ip), vehicle: saline 100 % of control | endpoint: mean survival time, dose: 150.0 mg/kg/injection, schedule: Q01DX001 (ip), vehicle: saline 94 % of control

CC(C)c1ccc(C(=O)C(O)c2ccc(C(C)C)cc2)cc1 (configuration not stated)
inactive: [4] 102 % of control | [5] 102 % of control | [6] 95 % of control

NC(CSC(c1ccccc1)(c1ccccc1)c1ccccc1)C(=O)O (configuration not stated) (tested in a mixture with another compound)
inactive: endpoint: mean survival time, dose: 5.5 mg/kg/injection, schedule: Q04DX003 (ip), vehicle: water 105 % of control | endpoint: mean survival time, dose: 8.3 mg/kg/injection, schedule: Q04DX003 (ip), vehicle: water 102 % of control | endpoint: mean survival time, dose: 12.4 mg/kg/injection, schedule: Q04DX003 (ip), vehicle: water 102 % of control | endpoint: mean survival time, dose: 18.6 mg/kg/injection, schedule: Q04DX003 (ip), vehicle: water 108 % of control | endpoint: mean survival time, dose: 28.0 mg/kg/injection, schedule: Q04DX003 (ip), vehicle: water 103 % of control | endpoint: mean survival time, dose: 42.0 mg/kg/injection, schedule: Q04DX003 (ip), vehicle: water 103 % of control | endpoint: mean survival time, dose: 63.0 mg/kg/injection, schedule: Q04DX003 (ip), vehicle: water 90 % of control

CC(C)CC(CC(C)C)=NNc1ccc([N+](=O)[O-])cc1[N+](=O)[O-]
inactive: endpoint: mean survival time, dose: 100.0 mg/kg/injection, schedule: Q01DX001 (ip), vehicle: saline 100 % of control | endpoint: mean survival time, dose: 200.0 mg/kg/injection, schedule: Q01DX001 (ip), vehicle: saline 103 % of control | endpoint: mean survival time, dose: 400.0 mg/kg/injection, schedule: Q01DX001 (ip), vehicle: saline 100 % of control

CC(O)CN1CCN(CC(C)O)CC1.[Cl][Pt+2][Cl] (configuration not stated)
inactive: endpoint: mean survival time, dose: 3.13 mg/kg/injection, schedule: Q04DX003 (ip), vehicle: saline with Tween-80 105 % of control | endpoint: mean survival time, dose: 6.25 mg/kg/injection, schedule: Q04DX003 (ip), vehicle: saline with Tween-80 102 % of control | endpoint: mean survival time, dose: 12.5 mg/kg/injection, schedule: Q04DX003 (ip), vehicle: saline with Tween-80 105 % of control | endpoint: mean survival time, dose: 25.0 mg/kg/injection, schedule: Q04DX003 (ip), vehicle: saline with Tween-80 102 % of control | endpoint: mean survival time, dose: 50.0 mg/kg/injection, schedule: Q04DX003 (ip), vehicle: saline with Tween-80 97 % of control

O=C(c1ccccc1)N(N=C(c1ccc([N+](=O)[O-])cc1)c1ccc([N+](=O)[O-])cc1)c1ccccc1
inactive: [4] 93 % of control | [6] 87 % of control
